Data as given in article PMC9884089 (Journal of Medicinal Chemistry, 2023).
Read-outs that look alike come from different tables or passages of the source. Each block holds one molecule with its values, some of them ahead of it.

Key:
[1] = test system: TNKS2; settings: Figure 1 ref 19; cited from earlier work
[2] = target: T1, PARP10 (Homo sapiens, UniProt Q53GL7); assay: biochemical; format: biochemical
T1 construct: made in house
T1 sequence (Q53GL7 1-1025): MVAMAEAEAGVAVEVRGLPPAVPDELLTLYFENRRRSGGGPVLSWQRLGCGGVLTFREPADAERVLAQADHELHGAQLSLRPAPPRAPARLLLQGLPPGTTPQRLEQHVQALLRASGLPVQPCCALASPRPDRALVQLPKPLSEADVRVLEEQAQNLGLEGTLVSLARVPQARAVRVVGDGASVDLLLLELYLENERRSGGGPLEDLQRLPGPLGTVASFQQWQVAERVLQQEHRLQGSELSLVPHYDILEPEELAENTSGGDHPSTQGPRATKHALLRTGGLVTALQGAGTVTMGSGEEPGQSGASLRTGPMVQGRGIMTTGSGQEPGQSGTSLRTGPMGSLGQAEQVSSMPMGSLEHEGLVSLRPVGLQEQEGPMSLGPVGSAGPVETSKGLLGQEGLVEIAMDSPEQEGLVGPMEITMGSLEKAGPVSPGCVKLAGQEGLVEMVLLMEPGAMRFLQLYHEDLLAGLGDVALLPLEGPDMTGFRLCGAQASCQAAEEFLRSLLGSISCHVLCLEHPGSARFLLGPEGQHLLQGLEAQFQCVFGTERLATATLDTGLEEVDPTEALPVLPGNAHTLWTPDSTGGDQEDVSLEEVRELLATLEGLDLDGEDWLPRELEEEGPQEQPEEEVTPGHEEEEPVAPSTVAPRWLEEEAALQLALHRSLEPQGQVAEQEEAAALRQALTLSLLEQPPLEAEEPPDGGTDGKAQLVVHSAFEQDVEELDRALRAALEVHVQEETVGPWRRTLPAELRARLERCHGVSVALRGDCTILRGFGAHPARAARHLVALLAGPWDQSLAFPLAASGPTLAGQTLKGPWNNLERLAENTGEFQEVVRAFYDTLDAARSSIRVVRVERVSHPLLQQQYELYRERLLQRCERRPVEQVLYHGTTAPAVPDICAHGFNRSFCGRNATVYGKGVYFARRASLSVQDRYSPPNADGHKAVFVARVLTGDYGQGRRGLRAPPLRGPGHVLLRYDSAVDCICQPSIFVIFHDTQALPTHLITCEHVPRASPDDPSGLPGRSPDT

[3] = target: T2, PARP15 (Homo sapiens, UniProt Q460N3); assay: biochemical; format: biochemical
T2 construct: made in house
T2 sequence (Q460N3 1-678): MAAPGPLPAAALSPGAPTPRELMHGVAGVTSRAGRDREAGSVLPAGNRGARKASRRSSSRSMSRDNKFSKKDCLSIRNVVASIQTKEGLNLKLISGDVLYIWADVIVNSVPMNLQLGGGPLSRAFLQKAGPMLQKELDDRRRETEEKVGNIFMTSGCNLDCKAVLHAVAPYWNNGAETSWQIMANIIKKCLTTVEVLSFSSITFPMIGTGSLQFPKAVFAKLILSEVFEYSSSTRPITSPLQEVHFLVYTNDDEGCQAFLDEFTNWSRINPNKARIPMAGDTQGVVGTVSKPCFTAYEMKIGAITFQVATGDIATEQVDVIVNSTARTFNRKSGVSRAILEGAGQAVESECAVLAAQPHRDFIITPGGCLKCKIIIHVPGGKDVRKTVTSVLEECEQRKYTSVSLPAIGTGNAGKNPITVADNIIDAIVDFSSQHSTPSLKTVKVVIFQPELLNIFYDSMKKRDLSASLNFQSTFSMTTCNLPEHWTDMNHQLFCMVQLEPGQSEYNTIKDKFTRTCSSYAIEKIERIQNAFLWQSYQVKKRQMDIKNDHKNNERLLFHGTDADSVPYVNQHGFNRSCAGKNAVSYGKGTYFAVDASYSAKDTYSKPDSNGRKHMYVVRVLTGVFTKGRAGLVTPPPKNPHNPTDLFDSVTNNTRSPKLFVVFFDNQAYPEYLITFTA

[4] = target: T1, PARP10; assay: Cellular MARylation assay (immunoblot of PARP10 auto-MARylation); format: cell-based; settings: 10 μM, 16 h, HeLa cells
Method: Cells were lysed in RIPA lysis buffer [10 mM Tris pH 7.4; 150 mM NaCl; 1% NP-40; 1% desoxycholate; 0,1% SDS; protease inhibitor cocktail (Sigma-Aldrich) and 10 μM olaparib (Selleck Chemicals)], and lysates were analyzed via SDS-PAGE and immunoblotting using specific anti-PARP10 (Eurogentec),[93] anti-MAR/PAR (Cell Signaling, E6F6A, anti-poly/Mono-ADP-ribose antibody), and anti-α-tubulin (B 5-1-2, Sigma-Aldrich) antibodies.

[5] = test system: PARP7; settings: Figure 1 ref 40; cited from earlier work
[6] = test system: PARP10; settings: Figure 1 ref 35; cited from earlier work
[7] = test system: TNKS1/2; settings: Figure 1; cited from earlier work
[8] = test system: PARP11; settings: Figure 1 ref 42; cited from earlier work
[9] = target: T3, TNKS2 (Homo sapiens, UniProt Q9H2K2); assay: biochemical; settings: read-out: TNKS2 IC50; > = less than 50% inhibition at highest concentration
T3 sequence (Q9H2K2 1-1166): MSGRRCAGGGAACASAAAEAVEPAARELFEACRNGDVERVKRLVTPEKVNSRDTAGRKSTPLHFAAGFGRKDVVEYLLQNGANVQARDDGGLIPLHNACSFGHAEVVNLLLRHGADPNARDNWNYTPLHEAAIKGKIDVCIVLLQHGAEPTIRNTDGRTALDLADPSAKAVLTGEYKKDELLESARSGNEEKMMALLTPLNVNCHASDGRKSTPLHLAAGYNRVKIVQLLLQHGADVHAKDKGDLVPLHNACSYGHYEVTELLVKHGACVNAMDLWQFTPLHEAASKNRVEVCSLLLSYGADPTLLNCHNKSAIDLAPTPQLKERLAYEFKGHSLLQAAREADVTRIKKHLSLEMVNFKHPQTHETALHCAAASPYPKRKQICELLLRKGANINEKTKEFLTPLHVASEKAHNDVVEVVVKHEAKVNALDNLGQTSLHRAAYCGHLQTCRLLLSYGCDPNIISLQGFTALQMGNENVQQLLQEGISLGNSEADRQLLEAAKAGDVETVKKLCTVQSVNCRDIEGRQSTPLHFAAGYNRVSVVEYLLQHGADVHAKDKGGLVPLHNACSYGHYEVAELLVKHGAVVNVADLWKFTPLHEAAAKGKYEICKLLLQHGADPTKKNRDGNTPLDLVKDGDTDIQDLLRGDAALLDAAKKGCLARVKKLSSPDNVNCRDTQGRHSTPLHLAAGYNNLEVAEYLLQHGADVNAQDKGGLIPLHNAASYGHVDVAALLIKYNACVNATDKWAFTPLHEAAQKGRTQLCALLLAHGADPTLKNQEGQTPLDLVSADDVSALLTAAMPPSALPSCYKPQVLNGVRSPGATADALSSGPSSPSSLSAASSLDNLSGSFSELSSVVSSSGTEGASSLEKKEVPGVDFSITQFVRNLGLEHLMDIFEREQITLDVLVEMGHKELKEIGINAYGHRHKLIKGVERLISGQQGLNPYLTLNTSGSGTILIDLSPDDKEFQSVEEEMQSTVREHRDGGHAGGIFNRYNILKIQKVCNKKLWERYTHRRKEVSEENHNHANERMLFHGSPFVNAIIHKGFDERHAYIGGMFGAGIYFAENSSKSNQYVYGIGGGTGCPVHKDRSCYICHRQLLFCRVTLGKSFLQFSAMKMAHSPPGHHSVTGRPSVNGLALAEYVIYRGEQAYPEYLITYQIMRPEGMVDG
Method: The proteins used in Tables 1–3 were produced as described earlier. Dockerin constructs to allow enhanced activity assays for mono-ARTs (Table 4) were produced in Escherichia coli with an N-terminal maltose binding protein (MBP) and a C-terminal dockerin domain from Hungateiclostridium thermocellum Cel48s as described recently.[47]
Inhibition experiments were performed using a homogenous assay measuring NAD+ consumption.[80]−[82] Reactions were carried out in quadruplicate, and IC50 curves were fitted using sigmoidal dose response curve (four variables) in GraphPad Prism version 8.02. […] Assay conditions for PARP2, TNKS2, PARP10, and PARP15 (Tables 1–3) were recently reported.[44] The conditions for the proximity-enhanced mono-ART assays (Table 4) were also reported recently.[47] PARP6 (400 nM) inhibition was measured using the standard buffer (50 mM sodium phosphate pH 7.0) for the enhanced activity assay using 500 nM NAD^+ and 18 h incubation in r.t..

[10] = target: T4, PARP2 (Homo sapiens, UniProt Q9UGN5); assay: biochemical; format: biochemical; settings: > = less than 50% inhibition at highest concentration; ≫ = no inhibition; read-out: PARP2 IC50
T4 construct: made in house
T4 sequence (Q9UGN5 whole entry): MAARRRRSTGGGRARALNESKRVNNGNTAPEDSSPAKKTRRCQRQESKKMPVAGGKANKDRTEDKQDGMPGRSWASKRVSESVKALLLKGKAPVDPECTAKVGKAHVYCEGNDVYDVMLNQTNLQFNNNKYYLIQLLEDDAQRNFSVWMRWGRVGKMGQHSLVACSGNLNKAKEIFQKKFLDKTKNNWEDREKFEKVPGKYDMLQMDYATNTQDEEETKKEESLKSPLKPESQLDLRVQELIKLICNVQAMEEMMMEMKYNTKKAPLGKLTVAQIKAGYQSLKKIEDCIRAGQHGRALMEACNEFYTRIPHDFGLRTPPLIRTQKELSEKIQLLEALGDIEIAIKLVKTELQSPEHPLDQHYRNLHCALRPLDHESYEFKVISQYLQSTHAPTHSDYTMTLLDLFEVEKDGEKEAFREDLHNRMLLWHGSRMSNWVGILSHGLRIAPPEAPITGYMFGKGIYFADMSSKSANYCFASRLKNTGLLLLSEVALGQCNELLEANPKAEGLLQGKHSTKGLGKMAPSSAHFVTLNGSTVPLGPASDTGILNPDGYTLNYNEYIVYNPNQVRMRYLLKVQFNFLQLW

[11] = test system: HEK293T cells; assay: Cell viability assay (colorimetric WST-1); format: cell-based, human; settings: HEK293T, 100, 50 and 10 μM, 24 h
Method: Cell viability was assessed by colorimetric WST-1 (Cellpro-Roche, Sigma-Aldrich) assay following manufacturer’s instructions. […] Also, DMSO and 10 mM hydroxyurea (Sigma) were used as internal controls for induced cell toxicity. […] Thereafter, WST-1 reagent was pipetted followed by 2 h incubation and absorbance measuring by a Tecan Infinite M1000 or a Tecan Spark (Tecan) plate reader. The assay was performed in triplicate and repeated at least three times. Data were normalized to DMSO control.

[12] = standard assay (Tables 1-3), * value limited by the protein concentration used, > less than 50% inhibition, ≫ no inhibition at the concentration, read-out: PARP15 IC50

SMILES: CCOc1ccc(-c2nnc([C@H]3C[C@H](NC(=O)c4cccc5c4NCCN5)C3)n2-c2ccccc2F)nc1 [OM-153]
IC50 [1]: 0.002 µM

SMILES: NC(=O)c1ccc(OCC2CCC2)cc1 [OUL238]
IC50 [6]: 0.29 µM

SMILES: O=c1[nH]nc2c3c(cccc13)N=C(CN1Cc3ccccc3C1)N2 [E7449]
IC50 [7]: 0.05 µM

SMILES: CC#Cc1ccc2c(=O)[nH]c(CSc3ncccn3)nc2c1C [ITK7]
IC50 [8]: 0.014 µM

More lines, main results first:

IC50 [2]: > 10 µM | IC50 [3]: > 10 µM
SMILES: COc1ccc(OC)c2c1sc1nnc(SC)n12 [Compound 28]

inhibition of auto-MARylation of overexpressed PARP10 in cells [4]: did not observe a MAR-signal
SMILES: NC(=O)c1ccc(Oc2ccc(C(N)=O)cc2)cc1 [OUL35, reference compound]

IC50 [2]: > 10 µM | IC50 [3, 12]: 7.9 µM
SMILES: COc1ccc(OC)c2c1sc1nnc(NC(=O)c3ccc(Cl)cc3)n12 [Compound 29]

IC50 [9]: 3.1 µM | IC50 [10]: 0.24 µM
SMILES: Oc1ccc(O)c2c1sc1nncn12 [Compound 18, [1,2,4]Triazolo[3,4-b][1,3]benzothiazol-5,8-diol]
cell toxicity (WST-1) [11]: toxic in a dose-dependent manner

IC50 ([2]; standard assay (Tables 1-3), * value limited by the protein concentration used, > less than 50% inhibition, ≫ no inhibition at the concentration, read-out: PARP10 IC50): > 10 µM | IC50 [9]: 2.5 µM | IC50 [3, 12]: > 10 µM | IC50 [10]: 5.3 µM
SMILES: c1ccc2c(c1)sc1nncn12 [Compound 2]

IC50 [9]: 9.5 µM | IC50 [10]: 4.5 µM
SMILES: CC(C)c1ccc2c(c1)sc1nncn12 [Compound 6, 7-Isopropyl[1,2,4]triazolo[3,4-b][1,3]benzothiazole]
cell toxicity (WST-1) [11]: toxic in a dose-dependent manner
